Consider twelve molecules from ChEMBL document CHEMBL1201862, “PubChem BioAssay data set” (2004).

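Briefly, cells in 96-well plates were exposed to five compound concentrations for 48 h, and endpoints were estimated by linear interpolation. GI50 = concentration required for 50% inhibition of growth.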 Active and inactive are the calls of the source. Cut-off read from the data, not from the text of the source: active = GI50 up to about 1.1 µM and inactive = higher.

Some test systems named below: HCC 2998; HOP-92; UACC-62; IGROV-1; MDA-MB-231; A498; SR; MDA-N; CCRF-CEM; OVCAR-5; SK-MEL-5; EKVX; M14; BT-549; NCI-H23; CAKI-1; MDA-MB-435; ACHN; MCF7; SF-539.
Common to all, as to test: NCI tumour cell line growth inhibition, 48 h

On to `CO[C@](C(=O)OC[C@H]1[C@@H](COC(C)=O)[C@@H]2O[C@H]1c1cc3c(cc12)OCO3)(c1ccccc1)C(F)(F)F`, for which the GI50 is 23.8 µM (inactive) with HCC 2998; 34 µM (inactive) with HOP-92; 19.6 µM (inactive) in the assay on UACC-62; 12.7 µM (inactive) in the assay on IGROV-1; 30.8 µM (inactive) with MDA-MB-231; 28.5 µM (inactive) in the assay on A498. Besides, the GI50 with SR is 21.2 µM (inactive); in the assay with MDA-N, 38.3 µM (inactive); with CCRF-CEM, 7.19 µM (inactive); with OVCAR-5, 30.9 µM (inactive); with SK-MEL-5, 32.9 µM (inactive); in the assay on EKVX it was 27 µM (inactive). Moreover, the GI50 with M14 is 35.9 µM (inactive); in the assay on BT-549 it was 22.9 µM (inactive); in the assay on NCI-H23 it was 19.1 µM (inactive); in the assay on CAKI-1, 32.8 µM (inactive); in the assay with MDA-MB-435, 38.5 µM (inactive).
`Cc1nc2ccc(Cl)cc2c2c1CCN2c1ccc(F)cc1`: the GI50 is 23.6 µM (inactive) with HCC 2998; 17.7 µM (inactive) in the assay with ACHN; 15.2 µM (inactive) in the assay with UACC-62; 9.42 µM (inactive) with IGROV-1; 12.2 µM (inactive) in the assay with MCF7; 7.48 µM (inactive) in the assay on MDA-MB-231. Moreover, the GI50 in the assay on A498 was 0.891 µM (active); in the assay on SR it was 13.1 µM (inactive); in the assay on MDA-N it was 7 µM (inactive); in the assay on CCRF-CEM, 11.6 µM (inactive); in the assay on OVCAR-5, 84.9 µM (inactive); with SK-MEL-5, 7.87 µM (inactive). Also, the GI50 in the assay with EKVX was 45.2 µM (inactive); with SF-539, 22.3 µM (inactive); in the assay on M14, 16.5 µM (inactive); in the assay with NCI-H23 it was 20.2 µM (inactive); in the assay on CAKI-1, 18.4 µM (inactive); in the assay on MDA-MB-435 it was 7.05 µM (inactive).
On to `COc1cccc(NC(=O)C(=O)C(C(=O)c2ccccc2F)C2OC(=O)c3ccccc32)c1` (stereo not given), for which the GI50 in the assay on HCC 2998 is 17.9 µM (inactive); in the assay on HOP-92, > 100 µM (inactive); in the assay on ACHN, 45.1 µM (inactive); in the assay with UACC-62, 26 µM (inactive); with IGROV-1, 56.6 µM (inactive); with A498 it was 72.6 µM (inactive). Also, the GI50 in the assay with SR was 16.6 µM (inactive); with CCRF-CEM it was 16.9 µM (inactive); in the assay with OVCAR-5, 59 µM (inactive); with SK-MEL-5, 52 µM (inactive); with EKVX it was 41.8 µM (inactive); with SF-539, 21.3 µM (inactive). The GI50 was 48 µM (inactive) in the assay with M14, 29.6 µM (inactive) in the assay with NCI-H23 and 52.5 µM (inactive) with CAKI-1.
Consider `COc1cc(S(=O)(=O)Nc2ccc(-c3csc(N4C(=O)C(Cl)C4c4ccccc4)n3)cc2)ccc1Cl` (stereo not given), for which the GI50 in the assay with HOP-92 was 18.2 µM (inactive); in the assay with ACHN, 60 µM (inactive); in the assay on UACC-62, 22.9 µM (inactive); in the assay with IGROV-1, 4.63 µM (inactive); in the assay with MCF7 it was 27.1 µM (inactive); in the assay with A498 it was 25.9 µM (inactive). In addition, the GI50 in the assay on SR was 3.06 µM (inactive); in the assay on MDA-N, 37.5 µM (inactive); in the assay with CCRF-CEM, 3.37 µM (inactive); in the assay with OVCAR-5, 47.4 µM (inactive); in the assay on SK-MEL-5 it was 25.2 µM (inactive); with EKVX, 31.9 µM (inactive). Besides, the GI50 in the assay with SF-539 is 32.7 µM (inactive); in the assay with M14, 24 µM (inactive); with BT-549, 26.9 µM (inactive); with NCI-H23 it was 25.6 µM (inactive); with CAKI-1, > 100 µM (inactive); with MDA-MB-435 it was 38.5 µM (inactive).
In the case of `C=CCOC(=O)Cn1cc(C)c(=O)[nH]c1=O`, the GI50 with HCC 2998, with ACHN, in the assay on UACC-62, with IGROV-1, with MCF7 and with MDA-MB-231 was > 100 µM (inactive) throughout. Besides, the GI50 in the assay with A498, in the assay on SR, in the assay on MDA-N, with CCRF-CEM, with SK-MEL-5 and with EKVX was > 100 µM (inactive) in each case. In addition, the GI50 with SF-539, in the assay with M14, in the assay with NCI-H23, in the assay with CAKI-1 and in the assay on MDA-MB-435 was > 100 µM (inactive) in each case.
Consider `COc1c2ccoc2c(S(=O)(=O)Nc2ccc(Cl)cc2)c2oc(C)cc(=O)c12`, for which the GI50 in the assay on HCC 2998 was > 100 µM (inactive); in the assay with HOP-92, 41.9 µM (inactive); in the assay with UACC-62 it was > 100 µM (inactive); in the assay with IGROV-1 it was > 100 µM (inactive); with MCF7 it was 51.9 µM (inactive); in the assay with A498 it was 54.6 µM (inactive). Besides, the GI50 in the assay with CCRF-CEM is > 100 µM (inactive); in the assay on OVCAR-5, > 100 µM (inactive); in the assay on SK-MEL-5, > 79.8 µM (inactive); in the assay on EKVX, > 100 µM (inactive); with SF-539, 31.3 µM (inactive); in the assay with NCI-H23, > 100 µM (inactive). Also, in the assay on CAKI-1, the GI50 was > 34.9 µM (inactive).
Take `COc1ccc2c(c1)CCN1CCCc3ccccc3C21` (stereo not given): the GI50 was 23 µM (inactive) in the assay on HCC 2998; 46.2 µM (inactive) with HOP-92; 54.2 µM (inactive) with ACHN; 31 µM (inactive) in the assay with UACC-62; 47.6 µM (inactive) in the assay with IGROV-1; 25.4 µM (inactive) in the assay on MCF7. In addition, the GI50 in the assay with MDA-MB-231 is 23.1 µM (inactive); in the assay on A498 it was > 100 µM (inactive); with SR, 31.8 µM (inactive); in the assay with CCRF-CEM it was 37.5 µM (inactive); in the assay on OVCAR-5, 42.9 µM (inactive); with SK-MEL-5, 58.5 µM (inactive). Besides, the GI50 in the assay on EKVX is > 100 µM (inactive); in the assay on SF-539, 17.5 µM (inactive); in the assay on M14, 15.9 µM (inactive); in the assay on BT-549, 28.1 µM (inactive); in the assay with NCI-H23, 45.8 µM (inactive); with CAKI-1 it was 54.1 µM (inactive). For the same molecule, the GI50 in the assay with MDA-MB-435 was 20.5 µM (inactive).
As for `CC(C)[Si](CC1=CCCCC12C(=O)N(COCC[Si](C)(C)C)c1ccccc12)(C(C)C)C(C)C` (stereo not given), the GI50 with HCC 2998 is 65.6 µM (inactive); in the assay on HOP-92 it was 89.3 µM (inactive); in the assay on ACHN, > 100 µM (inactive); with UACC-62 it was > 100 µM (inactive); in the assay with IGROV-1 it was > 100 µM (inactive); in the assay on MCF7 it was 61 µM (inactive). In addition, the GI50 is > 100 µM (inactive) with MDA-MB-231; > 100 µM (inactive) in the assay with A498; > 100 µM (inactive) in the assay on SR; > 100 µM (inactive) in the assay with MDA-N; 0.448 µM (active) with CCRF-CEM; 27.2 µM (inactive) with OVCAR-5. The GI50 was 43.7 µM (inactive) in the assay with SK-MEL-5; 63.8 µM (inactive) in the assay with EKVX; 73.1 µM (inactive) in the assay with SF-539; > 100 µM (inactive) with M14; 66.8 µM (inactive) with NCI-H23; > 100 µM (inactive) with CAKI-1. Besides, the GI50 in the assay with MDA-MB-435 is > 100 µM (inactive).
In the case of `CC(NC(=O)N(C)C)NC(=O)N(C)C`, the GI50 in the assay on HCC 2998, in the assay with HOP-92, with ACHN, in the assay on UACC-62, in the assay on IGROV-1 and with MCF7 was > 10 µM (inactive) throughout. Further, the GI50 with MDA-MB-231, with A498, in the assay with SR, in the assay with MDA-N, in the assay with CCRF-CEM and with SK-MEL-5 was > 10 µM (inactive) throughout. Moreover, the GI50 in the assay with EKVX, with SF-539, in the assay on M14, in the assay on NCI-H23, in the assay with CAKI-1 and with MDA-MB-435 was > 10 µM (inactive) in each case.
Consider `O=C(O)CCCCCCC[C@@H]1S[C@H]1CCCCCCO`, for which the GI50 is > 100 µM (inactive) with HCC 2998; 33.8 µM (inactive) with HOP-92; > 100 µM (inactive) with UACC-62; > 64.7 µM (inactive) in the assay with IGROV-1; > 100 µM (inactive) in the assay on MCF7; > 60.7 µM (inactive) with A498. Further, the GI50 in the assay on CCRF-CEM, in the assay on OVCAR-5, in the assay with SK-MEL-5, with EKVX, in the assay on SF-539 and in the assay with NCI-H23 was > 100 µM (inactive) each time. Also, in the assay with CAKI-1, the GI50 is > 100 µM (inactive).
Consider `CCOC(=O)c1nc2ccc(C(F)(F)F)cc2nc1Oc1cc(OC)c(OC)c(OC)c1`, for which the GI50 was 14.5 µM (inactive) in the assay with HOP-92; 8.17 µM (inactive) in the assay on ACHN; 94.8 µM (inactive) in the assay with UACC-62; 51.1 µM (inactive) in the assay with IGROV-1; > 100 µM (inactive) in the assay with MCF7; 87.7 µM (inactive) with MDA-MB-231. In addition, the GI50 is > 100 µM (inactive) in the assay on A498; > 100 µM (inactive) in the assay with MDA-N; > 10 µM (inactive) in the assay on CCRF-CEM; 97.9 µM (inactive) in the assay on OVCAR-5; 23.1 µM (inactive) with SK-MEL-5; 35.3 µM (inactive) in the assay with EKVX. Moreover, the GI50 was 62.2 µM (inactive) with SF-539, > 100 µM (inactive) in the assay with M14, > 100 µM (inactive) in the assay on BT-549 and > 100 µM (inactive) with MDA-MB-435.
As to `COc1ccc2c(=O)c(O)c(-c3ccc(OC)c(OC)c3)oc2c1`, the GI50 in the assay with HCC 2998 is 27.9 µM (inactive); with HOP-92, 4.18 µM (inactive); in the assay on ACHN, 3.54 µM (inactive); in the assay with UACC-62, 3.23 µM (inactive); in the assay with IGROV-1 it was 7.45 µM (inactive); in the assay with MCF7 it was 3.74 µM (inactive). Further, the GI50 in the assay with MDA-MB-231 was 4.8 µM (inactive); with A498, 4.97 µM (inactive); with SR, 4.08 µM (inactive); with MDA-N, > 100 µM (inactive); in the assay with CCRF-CEM, 2.36 µM (inactive); in the assay on OVCAR-5, 20.8 µM (inactive). Moreover, the GI50 in the assay with SK-MEL-5 was 5.5 µM (inactive); in the assay on EKVX it was 6.95 µM (inactive); with M14, 5.45 µM (inactive); in the assay on CAKI-1 it was 3.44 µM (inactive); with MDA-MB-435, 4.51 µM (inactive).
